# Laboratory results taken from patent US9901637B2, “Vitamin D3 and analogs thereof for treating alopecia” (priority 2009, dated 2018).
# Read-outs that look alike come from different tables or passages of the source.
# Assays:
# PC-3 = assay: Cell viability assay after calcitriol exposure for two passages; assay type: cell-based; conditions: PC-3, 0.1 μg/mL calcitriol for two passages
# Description: Then these pretreated cells were utilized to set up the cell-based assay. […] Three commonly used chemotherapy drugs (doxorubicin, cisplatin and erlotinib) were selected to evaluate calcitriol treated cells. […] In these experiments, the commercial drugs were serially diluted, starting at a concentration 4-times higher than the final desired concentration for cell incubation.
# HEKa cells [1] = assay: Proteomic analysis (2-D gel electrophoresis) of calcitriol-treated HEKa; assay type: cell-based, human; conditions: 0.1 μg/mL calcitriol
# Description: The cell pellets were then analyzed using proteomic methods, such as 2-D gel and Western blot analysis. […] In all, analysis of about 458 protein spots in the comparative study was performed, comparing the control sample against the 3-, 6-, and 24-hour treatment samples. Six spots showing statistically significant differential changes were identified. These spots were excised, and their protein contents subjected to sequence identification by trypsin digestion and mass spectrometry characterization.
# [2] = test system: chemotherapy-induced alopecia (CIA); conditions: for protection from etoposide-induced alopecia: etoposide 1.5 mg/kg daily for 3 days
# Description: Specifically, Long Evans and Sprague Dawley rats with pups were purchased from Harlan Laboratories, Inc. They were housed and fed according to applicable animal handling rules and regulations. Pups were allowed to acclimate for 48 hours prior to the start of experiments. […] Rats were isolated from their littermates and mother for 6-hour periods of time. Subsequently, the treated area was cleaned with soap and water and pups were returned to their litters. On day 13, rats either received etoposide (1.5 mg/kg daily for 3 days) or cyclophosphamide (CTX) (37.5 mg/kg once) or combination cyclophosphamide (35 mg/kg once) and doxorubicin (2.5 mg/kg daily for 3 days). All chemotherapies were purchased from Sigma and were given intraperitoneally (i.p.) in a total volume of 0.1 mL. Alopecia was recorded 10 days after the last dose of chemotherapy.
# [3] = test system: MCF-7 (breast cancer with p53 mutation); assay: Cell growth/viability assay, calcitriol with or without chemotherapy drug; assay type: cell-based
# HepG2 (liver cancer) = assay: as above; assay type: cell-based
# MIAC51 = assay: Survival (cure) rate of chloroleukemic rats after two rounds of chemotherapy; assay type: in vivo, Long Evans Rats
# Description: Animals were then randomized in four groups. All rats received MIAC51 as described below.
# On day 5 after birth all rats received 1×105 MIAC51 intraperitoneally in 0.1 ml of serum free (SF) RPMI. MIAC51 were cultured in RPMI 1640 supplemented with L-glutamine and 10% fetal bovine serum at […] in a 5% CO2, 100% humidity incubator. Cells were grown to 50% confluency (1.5×106 ml) collected in 50 ml conical tubes, centrifuged at 600 g for 10 minutes at room temperature and resuspended in SF-RPMI at a concentration of 1×10^6/ml prior to injection.
# [4] = test system: PaCa2 (pancreatic carcinoma); assay: Cell growth/viability assay, calcitriol with or without chemotherapy drug; assay type: cell-based
# HEKa cells [5] = assay: Antibody microarray (Panorama XP725) of calcitriol-treated HEKa; assay type: cell-based, human; conditions: calcitriol-treated (24 hour), 3-hour sample as baseline
# Description: Briefly, the treated HEKa cells were first harvested and then extracted to obtain a soluble protein supernatant. […] The excess dye was removed from the protein sample, and the resulting labeled protein samples were used for microarray incubation. To determine the expression level of a particular target protein at a later time point (e.g., at hour 6 or 24) relative to that at an earlier time point (e.g., at hour 3), the samples were labeled by different labels (e.g., 3-hour extract labeled with Cy3,6-hour or 24-hour extract labeled with Cy5). […] After incubation with the microarray chip (according to manufactures recommended protocols), the chips were washed and dried. The microarrays were then scanned with a fluorescent laser scanner to measure the relative fluorescence intensity of the Cy3 and Cy5 dyes. If the amount of a particular type of target protein increased (or decreased) over time, more (or less) of the dye associated with the later time point (e.g., Cy5) will be retained by the microarray. For example, in this experiment, the earliest time point (e.g., 3-hour) was used as a baseline to determine the relative protein expression level at two later time points (e.g., 6-hour vs. 24-hour). If more Cy5 is retained by the array between 6-24 hours, the expression level of the target protein increased over the time period. […]
# [6] = Preliminary animal toxicology study; assay type: in vivo; conditions: dose of about 100 μg
# [7] = test system: SkBr-3 (breast adenocarcinoma cancer, Her2 overexpressed); assay: Cell growth/viability assay, calcitriol with or without chemotherapy drug; assay type: cell-based
smiles,measurement,setting,value
"C=C1/C(=C\C=C2/CCC[C@]3(C)[C@@H]([C@H](C)CCCC(C)(C)O)CC[C@@H]23)C[C@@H](O)C[C@@H]1O [Calcitriol, 1,25-dihydroxyvitamin D3]","response to other drugs (doxorubucin, cisplatin, erlotinib) after calcitriol exposure",PC-3,did not alter
same,Glutathione S-transferase (GST) Response,"HEKa cells [1]; at 3, 6, and 24 hours, 2-D gel spot 4","up at 3,"
same,S100 A13 Response,"HEKa cells [1]; at 6 and 24 hours, spot 14",up at
same,Galectin 1 (LGALS1) Response,"HEKa cells [1]; at 6 and 24 hours, spot 27",up at
same,Keratin 1 (KRT1) Response,"HEKa cells [1]; at 6 hours, spot 2",up at
same,dosage protective against CIA,"[2]; neonatal rat, administered as 100 μL of 2 μg/mL topical solution",about 0.2 μg
same,protection from etoposide-induced alopecia,"[2]; neonatal rats, 0.1 μg of calcitriol topical for 6 hours daily, 6 days",partial localized protection
same,protection from cyclophosphamide-induced alopecia,"[2]; neonatal rats, 0.3 μg calcitriol topical, cyclophosphamide 37.5 mg/kg once",full body protection
same,protection from etoposide-induced alopecia,"[2]; neonatal rats, 0.3 calcitriol topical",total body protection
same,concentrations giving calcitriol growth inhibition,[3]; MCF-7,> 0.5 µg/mL
same,concentrations giving calcitriol growth stimulation,[3]; MCF-7,0.05 to 0.25 µg/mL
same,effect on the cytotoxic effect of Doxorubicin,[3]; MCF-7,did not appear to appreciably alter
same,"response to other drugs (doxorubucin, cisplatin, erlotinib) after calcitriol exposure","[3]; MCF-7, 0.1 μg/mL calcitriol for two passages",did not alter
same,effect on the cytotoxic effect of Doxorubicin,HepG2 (liver cancer); Hep-G2,did not appear to appreciably alter
same,5-FU ED50 curve with versus without calcitriol,"HepG2 (liver cancer); Hep-G2, 0.1 μg/mL calcitriol",not significantly different
same,"response to other drugs (doxorubucin, cisplatin, erlotinib) after calcitriol exposure","HepG2 (liver cancer); Hep-G2, 0.1 μg/mL calcitriol for two passages",did not alter
same,concentrations giving calcitriol growth inhibition,HepG2 (liver cancer); HepG2,> 0.5 µg/mL
same,concentrations giving calcitriol growth stimulation,HepG2 (liver cancer); HepG2,0.05 to 0.25 µg/mL
same,interference with the cure rate,"MIAC51; cyclophosphamide and doxorubicin group, cure rate in the range of 50-55%",did not interfere with the cure rate
same,interference with the cure rate,"MIAC51; cyclophosphamide group, cure rate in the range of 20-25%",did not interfere with the cure rate
same,interference with the cure rate,"MIAC51; cyclophosphamide, doxorubicin and cytarabine group, cure rate in the range of 75-80%",did not interfere with the cure rate
same,interference with the cure rate,"MIAC51; cyclophosphamide, paclitaxel and etoposide group, cure rate in the range of 78-83%",did not interfere with the cure rate
same,interference with the cure rate,"MIAC51; doxorubicin, paclitaxel and etoposide group, cure rate in the range of 80-83%",did not interfere with the cure rate
same,effect of calcitriol on cell growth,[4]; PaCa2,no significant growth promoting or growth inhibiting effects
same,effect on the cytotoxic effect of Doxorubicin,[4]; PaCa-2,did not appear to appreciably alter
same,5-FU ED50 curve with versus without calcitriol,"[4]; PaCa-2, 0.1 μg/mL calcitriol",not significantly different
same,"response to other drugs (doxorubucin, cisplatin, erlotinib) after calcitriol exposure","[4]; PaCa-2, 0.1 μg/mL calcitriol for two passages",did not alter
same,Target Proteins with Decreased (>2-fold) Protein Levels Following Calcitriol Treatment (value = protein),HEKa cells [5],Transforming Growth Factorb pan and WAVE and Protein Tyrosine Phosphatase PEST and CD40 and Crk II and Growth Factor Independence1 and Serine Threonine Protein and Cathepsin D
same,dermal irritation,[6],no dermal irritation
same,skin penetration,[6],excellent epidermal penetration without substantial dermal penetration
same,effect of calcitriol on cell growth,[7],no significant growth promoting or growth inhibiting effects
same,effect on the cytotoxic effect of Doxorubicin,[7],did not appear to appreciably alter
